Laboratory results as given in ChEMBL document CHEMBL3853315, “Targeting the Translesion Synthesis Pathway for the Development of Anti-Cancer Chemotherapeutics” (J Med Chem, 2016).

Legend:
[1] = Growth inhibition of human MDA-MB-231 cells after 72 hrs by MTT assay; type: functional; details: MDA-MB-231, 72 h
[2] = molecular target: Ubiquitin carboxyl-terminal hydrolase 1/WD repeat-containing protein 48 (Homo sapiens, UniProt O94782); assay: Inhibition of human USP1/UAF1 complex using Ub-Rho as substrate preincubated for 30 mins followed by substrate addition by fluorescence-based HTS assay; type: protein-complex assay
[3] = molecular target: T1, Ubiquitin carboxyl-terminal hydrolase 1/WD repeat-containing protein 48 (Homo sapiens, UniProt O94782+Q8TAF3); assay: Inhibition of USP1/UAF1 complex in HEK293T cells assessed as decrease in ability of DNA polymerase eta to bypass UV-induced DNA lesions after 24 hrs by strand specific PCR-based competitive replication and adduct bypass assay; type: cell-based; details: HEK-293T, concentration not given here
[4] = molecular target: T1, Ubiquitin carboxyl-terminal hydrolase 1/WD repeat-containing protein 48; assay: Inhibition of USP1/UAF1 complex in human H596 cells assessed as potentiation of cisplatin-induced cell killing by measuring cisplatin GI50 at 1:4 cisplatin to compound ratio pretreated for 48 hrs followed by addition of fresh growth medium measured after 5 to 10 days by colony forming assay (reference value: 486 nM); type: cell-based
DNA polymerase iota = molecular target: T2, DNA polymerase iota (Homo sapiens, UniProt Q9UNA4); assay: Inhibition of human recombinant DNA polymerase iota expressed in Baculovirus expression system using TAMRA/BHQ-2-labeled primer/template measured at 2 to 6 mins by reporter-strand displacement assay
T2 sequence (Q9UNA4 whole entry): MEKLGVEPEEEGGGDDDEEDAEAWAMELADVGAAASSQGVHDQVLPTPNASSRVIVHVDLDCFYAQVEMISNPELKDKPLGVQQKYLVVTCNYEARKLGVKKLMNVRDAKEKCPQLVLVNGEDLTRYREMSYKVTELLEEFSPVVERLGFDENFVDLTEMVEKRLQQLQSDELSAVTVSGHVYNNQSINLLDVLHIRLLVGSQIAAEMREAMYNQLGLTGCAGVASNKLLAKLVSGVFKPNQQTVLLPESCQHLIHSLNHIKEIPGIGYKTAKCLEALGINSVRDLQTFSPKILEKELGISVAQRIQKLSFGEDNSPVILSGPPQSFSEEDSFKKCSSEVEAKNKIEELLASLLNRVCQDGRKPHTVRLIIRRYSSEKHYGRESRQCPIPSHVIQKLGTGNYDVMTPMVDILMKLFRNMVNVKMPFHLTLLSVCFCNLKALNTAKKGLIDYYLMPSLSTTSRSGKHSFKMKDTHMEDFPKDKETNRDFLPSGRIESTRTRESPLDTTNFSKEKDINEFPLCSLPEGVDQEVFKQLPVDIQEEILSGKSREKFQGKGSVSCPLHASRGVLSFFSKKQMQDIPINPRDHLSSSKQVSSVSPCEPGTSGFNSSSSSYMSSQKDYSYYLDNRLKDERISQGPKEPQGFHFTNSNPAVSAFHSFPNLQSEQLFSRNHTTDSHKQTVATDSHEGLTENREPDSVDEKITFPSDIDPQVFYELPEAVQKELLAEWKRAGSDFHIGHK

DNA polymerase eta = molecular target: T3, DNA polymerase eta (Homo sapiens, UniProt Q9Y253); assay: Inhibition of human recombinant DNA polymerase eta expressed in Baculovirus expression system using TAMRA/BHQ-2-labeled primer/template measured at 2 to 6 mins by reporter-strand displacement assay
T3 sequence (Q9Y253 whole entry): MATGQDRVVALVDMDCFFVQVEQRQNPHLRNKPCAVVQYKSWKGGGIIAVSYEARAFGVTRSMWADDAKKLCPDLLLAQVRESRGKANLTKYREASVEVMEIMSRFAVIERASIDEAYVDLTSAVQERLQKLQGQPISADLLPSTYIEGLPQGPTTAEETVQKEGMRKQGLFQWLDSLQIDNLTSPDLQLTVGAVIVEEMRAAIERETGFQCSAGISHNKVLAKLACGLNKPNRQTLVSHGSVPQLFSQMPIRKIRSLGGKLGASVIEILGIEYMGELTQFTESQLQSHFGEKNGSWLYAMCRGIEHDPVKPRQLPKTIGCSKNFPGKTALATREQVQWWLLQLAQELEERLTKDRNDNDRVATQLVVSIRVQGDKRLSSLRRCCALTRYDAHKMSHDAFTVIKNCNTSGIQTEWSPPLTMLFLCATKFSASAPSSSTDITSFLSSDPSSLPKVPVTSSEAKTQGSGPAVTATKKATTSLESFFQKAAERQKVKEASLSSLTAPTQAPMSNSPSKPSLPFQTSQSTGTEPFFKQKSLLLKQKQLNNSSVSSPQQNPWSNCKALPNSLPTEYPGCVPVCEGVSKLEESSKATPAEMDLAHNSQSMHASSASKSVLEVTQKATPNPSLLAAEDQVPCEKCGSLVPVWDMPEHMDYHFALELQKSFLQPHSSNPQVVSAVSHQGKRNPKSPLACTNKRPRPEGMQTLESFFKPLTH

DNA polymerase kappa = molecular target: T4, DNA polymerase kappa (Homo sapiens, UniProt Q9UBT6); assay: Inhibition of human DNA polymerase kappa (19 to 526 residues)-mediated TLS past acrolein derived ring-opened reduced form of gamma-HOPdG lesions preincubated for 15 mins followed by DNA substrate addition measured after 30 mins in presence of dCTP and dGTP by radioactive gel-based primer extension assay
T4 sequence (Q9UBT6 whole entry): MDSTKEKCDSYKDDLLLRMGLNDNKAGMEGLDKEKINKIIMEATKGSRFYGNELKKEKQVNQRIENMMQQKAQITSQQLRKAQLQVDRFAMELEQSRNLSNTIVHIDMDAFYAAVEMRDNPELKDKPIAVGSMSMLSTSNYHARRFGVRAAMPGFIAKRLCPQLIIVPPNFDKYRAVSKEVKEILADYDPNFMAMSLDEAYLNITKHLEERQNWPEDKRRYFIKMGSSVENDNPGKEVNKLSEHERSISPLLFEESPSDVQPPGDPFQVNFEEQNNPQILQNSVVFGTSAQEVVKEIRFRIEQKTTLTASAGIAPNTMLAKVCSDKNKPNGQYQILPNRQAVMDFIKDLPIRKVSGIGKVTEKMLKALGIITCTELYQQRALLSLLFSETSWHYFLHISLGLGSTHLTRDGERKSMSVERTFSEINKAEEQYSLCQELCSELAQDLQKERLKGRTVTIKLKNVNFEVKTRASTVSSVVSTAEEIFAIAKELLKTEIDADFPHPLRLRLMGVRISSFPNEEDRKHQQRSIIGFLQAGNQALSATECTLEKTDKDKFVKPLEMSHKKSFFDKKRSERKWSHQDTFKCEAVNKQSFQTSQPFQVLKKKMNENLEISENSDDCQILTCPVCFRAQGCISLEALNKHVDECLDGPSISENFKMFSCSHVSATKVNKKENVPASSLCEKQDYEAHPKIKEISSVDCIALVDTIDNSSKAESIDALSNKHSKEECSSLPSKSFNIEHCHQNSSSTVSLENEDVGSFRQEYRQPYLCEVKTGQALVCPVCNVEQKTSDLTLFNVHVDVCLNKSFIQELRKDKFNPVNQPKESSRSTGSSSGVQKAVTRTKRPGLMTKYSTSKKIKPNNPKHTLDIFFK

[5] = molecular target: T1, Ubiquitin carboxyl-terminal hydrolase 1/WD repeat-containing protein 48; assay: Inhibition of human USP1/UAF1 complex using Ub-Rho as substrate by qHTS assay; type: protein-complex assay

T1 sequence (O94782 whole entry): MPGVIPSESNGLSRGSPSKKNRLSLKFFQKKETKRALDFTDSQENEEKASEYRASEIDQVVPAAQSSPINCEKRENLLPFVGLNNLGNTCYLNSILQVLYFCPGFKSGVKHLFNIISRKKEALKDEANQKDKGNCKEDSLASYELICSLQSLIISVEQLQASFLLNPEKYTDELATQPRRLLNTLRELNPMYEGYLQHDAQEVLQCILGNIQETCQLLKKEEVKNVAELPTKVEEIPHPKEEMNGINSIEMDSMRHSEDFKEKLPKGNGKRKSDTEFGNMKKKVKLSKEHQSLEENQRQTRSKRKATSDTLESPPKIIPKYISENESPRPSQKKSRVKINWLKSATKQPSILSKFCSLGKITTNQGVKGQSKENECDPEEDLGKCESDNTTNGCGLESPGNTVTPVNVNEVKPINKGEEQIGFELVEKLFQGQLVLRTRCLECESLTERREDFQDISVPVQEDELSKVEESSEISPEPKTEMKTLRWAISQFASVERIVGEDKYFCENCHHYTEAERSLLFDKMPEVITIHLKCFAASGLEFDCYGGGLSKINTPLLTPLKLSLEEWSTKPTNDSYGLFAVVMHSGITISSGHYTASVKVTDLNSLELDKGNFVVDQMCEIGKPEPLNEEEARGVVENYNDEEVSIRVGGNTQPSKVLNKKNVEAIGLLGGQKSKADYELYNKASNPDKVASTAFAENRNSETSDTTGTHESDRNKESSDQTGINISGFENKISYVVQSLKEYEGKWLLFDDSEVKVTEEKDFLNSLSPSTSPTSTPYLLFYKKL
T1 sequence (Q8TAF3 whole entry): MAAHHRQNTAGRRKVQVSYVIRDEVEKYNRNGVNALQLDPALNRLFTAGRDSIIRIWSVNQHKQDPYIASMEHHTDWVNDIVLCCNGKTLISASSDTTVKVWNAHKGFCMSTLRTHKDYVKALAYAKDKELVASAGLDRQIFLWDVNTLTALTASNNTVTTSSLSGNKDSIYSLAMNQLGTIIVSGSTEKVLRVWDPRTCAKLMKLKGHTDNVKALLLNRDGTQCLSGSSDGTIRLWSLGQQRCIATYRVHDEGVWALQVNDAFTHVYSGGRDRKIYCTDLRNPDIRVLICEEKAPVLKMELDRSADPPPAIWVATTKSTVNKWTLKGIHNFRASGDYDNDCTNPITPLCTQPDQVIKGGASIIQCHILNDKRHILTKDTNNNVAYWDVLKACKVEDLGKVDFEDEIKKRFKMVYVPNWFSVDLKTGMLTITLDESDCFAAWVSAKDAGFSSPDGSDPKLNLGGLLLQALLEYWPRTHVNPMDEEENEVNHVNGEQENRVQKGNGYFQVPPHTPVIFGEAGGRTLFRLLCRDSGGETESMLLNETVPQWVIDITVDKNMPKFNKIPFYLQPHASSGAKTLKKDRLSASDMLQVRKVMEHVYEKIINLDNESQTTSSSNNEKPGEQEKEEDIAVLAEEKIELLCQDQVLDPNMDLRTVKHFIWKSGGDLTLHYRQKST
Chain of Ubiquitin carboxyl-terminal hydrolase 1/WD repeat-containing protein 48 (Homo sapiens, UniProt O94782) (O94782 whole entry): as the sequence (O94782 whole entry) above
Chain of Ubiquitin carboxyl-terminal hydrolase 1/WD repeat-containing protein 48 (Homo sapiens, UniProt O94782) (Q8TAF3 whole entry, further chain): as the sequence (Q8TAF3 whole entry) above

For `Nc1nc(COC(=O)c2ccc([N+](=O)[O-])cc2)nc(Nc2ccccc2)n1`, which GI50 [1] is on record?
The GI50 was 10 µM.

For `Cc1ccc(Nc2nc(N)nc(COC(=O)c3ccc([N+](=O)[O-])cc3)n2)cc1`, which GI50 [1] is on record?
The GI50 was 10 µM.

For `O=C1c2ccccc2C(=O)C2OC(c3ccc(F)cc3)=NC12` (centres undefined), which IC50 [2] is on record?
Its IC50 is 0.88 µM.

Which inhibition [3] does the source give for `Cc1cnc(-c2ccccc2C(C)C)nc1NCc1ccc(-n2ccnn2)cc1` here?
Its inhibition is 31%.

And the GI50 [4]?
Its GI50 is 0.059 µM.

What does the source list for `O=C(O)C1=CC(=C(c2ccc(O)c(C(=O)O)c2)c2ccc(O)c(C(=O)O)c2)C=CC1=O` [AURINTRICARBOXYLIC ACID]?
IC50 (DNA polymerase iota): 0.075 µM; IC50 (DNA polymerase eta): 0.075 µM

For `CCOc1nc2cccc(C(=O)OC(C)OC(=O)OC3CCCCC3)c2n1Cc1ccc(-c2ccccc2-c2nnn[nH]2)cc1` (centres undefined) [CANDESARTAN CILEXETIL], which IC50 (DNA polymerase kappa) is on record?
The IC50 was 5.6 µM.

For `O=c1oc2c(O)c(O)cc3c(=O)oc4c(O)c(O)cc1c4c23` [ELLAGIC ACID], which IC50 (DNA polymerase iota) is on record?
The IC50 was 0.062 µM.

And the IC50 (DNA polymerase eta)?
The IC50 was 0.062 µM.

For `CC(C)(Sc1ccc(CCN(CCCCC2CCCCC2)C(=O)NC2CCCCC2)cc1)C(=O)O` [GW7647], which IC50 [5] is on record?
The IC50 was 5 µM.

Which IC50 [5] does the source give for `O=c1[nH]c2ccccc2n1C1CCN(CCCC(c2ccc(F)cc2)c2ccc(F)cc2)CC1` [PIMOZIDE] here?
Its IC50 is 2 µM.

With `CC(=O)c1c(O)c(C)c(O)c(Cc2c(O)c3c(c(C(=O)/C=C/c4ccccc4)c2O)OC(C)(C)C=C3)c1O` [ROTTLERIN] as the compound, how does the IC50 [5] read?
Its IC50 is 8 µM.

Which IC50 [5] does the source give for `CN1CCN(CCCN2c3ccccc3Sc3ccc(C(F)(F)F)cc32)CC1` [TRIFLUOPERAZINE] here?
The IC50 was 8 µM.
